Measurements reported in PubChem BioAssay (NCI).
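Assay format: 96-well plates, 48-hour exposure. GI50 = concentration required for 50% inhibition of growth. TGI is the concentration that stops growth completely.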

Experiments:
Test in all cases: NCI-60 cell line screen, 48 h
MCF7 breast = tested on: MCF7 breast
T-47D breast = tested on: T-47D breast
BT-549 breast = tested on: BT-549 breast
MDA-MB-231 breast = tested on: MDA-MB-231 breast
HS 578T breast = tested on: HS 578T breast
MDA-MB-435 = tested on: MDA-MB-435
PC-3 prostate = tested on: PC-3 prostate

Structure (SMILES)	GI50 (MCF7 breast) [µM]	TGI (MCF7 breast) [µM]	GI50 (T-47D breast) [µM]	TGI (T-47D breast) [µM]	GI50 (BT-549 breast) [µM]	TGI (BT-549 breast) [µM]	GI50 (MDA-MB-231 breast) [µM]	TGI (MDA-MB-231 breast) [µM]	GI50 (HS 578T breast) [µM]	TGI (HS 578T breast) [µM]	GI50 (MDA-MB-435) [µM]	TGI (MDA-MB-435) [µM]	GI50 (PC-3 prostate) [µM]	TGI (PC-3 prostate) [µM]
CCCCNC(=O)Oc1ccc2c(=O)c3sc4c(=O)c5ccccc5c(=O)c4c3c(=O)c2c1	0.429	2.18	2.11	5.4	0.154	0.293	1.39	5.91	0.279	0.86	0.172	0.328		
N#C/C(=C/C=C/c1ccccc1)S(=O)c1ccccc1 (centres undefined)			0.298	5.62	0.712	2.35	0.371	1.56	2.95	39.8	0.485	1.83	1.35	3.33
CC(C)(C)N1CC(OC(N)=O)C1	> 100	> 100	> 100	> 100	> 100	> 100	> 100	> 100	> 100	> 100	> 100	> 100	> 100	> 100
N#Cc1ccc(-c2nc3ccc(Cl)cc3[nH]2)cc1		> 100		> 100		> 100		> 100		> 100				> 100
C[C@@H](Oc1cc(NS(=O)(=O)N2CCC2)nc(SCc2cccc(F)c2F)n1)[C@@H](O)CO	> 100	> 100	> 100	> 100	> 100	> 100	> 100	> 100	> 100	> 100	> 100	> 100	> 100	> 100
COc1ccccc1N1CCN(C(=O)c2ccc(NS(=O)(=O)c3cccc4cccnc34)cc2)CC1	> 49.4	> 100	> 22.1	> 100	> 76.5	> 100	> 53.6	> 100	> 46.4	99.4	> 100	> 100	> 100	> 100
CNC(=O)c1cncc(/C=C/c2c(C)cccc2C)c1	> 25	> 25	> 25	> 25	> 25	> 25	21.1	> 25	7.19	24.2	> 25	> 25	> 25	> 25
COc1cc([C@@H]2c3cc4c(cc3[C@H](OC(C)=O)[C@H]3COC(=O)[C@H]23)OCO4)cc(OC)c1OC			0.0669	> 100	0.0311	21.9	0.0416	> 100	0.0312	> 100	0.0192	0.0533	0.0371	> 100
O=C1C(Cl)=C(Nc2cccc(O)c2)C(=O)N1c1cccc(Cl)c1	36	> 100	67.2	> 100	27.3	> 100	35.8	> 100	29.3	> 100	43	> 100	21.4	> 100
O=C1c2cccc3cc([N+](=O)[O-])cc(c23)C(=O)N1CCN1CCCC1	0.309	3.83	0.302	2.28	1.56	7.55	1.56	11.1	1.08	5.36	1.31	2.99	1.58	12.5
O=S(=O)(NCCCNc1cc(-c2cn(-c3ccccc3)nc2-c2cccc(O)c2)ccn1)c1cccc2ccccc12	1.96	5.45	2.14	8.53	2.47	7.58	1.86	6.52	1.42	8.39	3.48	37.4	2.87	44.9
CC(=O)Nc1ccc2oc(=O)c3ccccc3c2c1		> 100		> 100		> 100				> 100		> 100		> 100
N/C(=N\c1nc2ccccc2s1)NC(=O)Nc1ccccc1Cl	0.112	> 100	0.557	> 100	0.421	4.86	0.431	8.21	0.113	10.7	0.0269	0.0868	0.13	> 71.9
O=C1/C(=C/c2ccccc2)CN(CCC(=O)N2C/C(=C\c3ccccc3)C(=O)/C(=C/c3ccccc3)C2)C/C1=C\c1ccccc1	0.182	26.3	13.5	75.3	9.91	36.4	10.7	56.2	10.7	55.4	0.683	5.68	6.02	> 69.9
N=C1C(c2nc3ccccc3s2)=C(O)CN1c1ccc(Cl)cc1Cl	41.2	> 100	44.9	> 100	17.8	49.6	17.1	42.9	25.5	75.9	16.5	> 100	11.5	29
CC(=O)NNC(=S)/N=C/c1c(O)cc(C)oc1=O		> 100		> 100		> 100		> 100				> 100		> 100
NCCCn1c2c(c3cc4c(cc3c1=O)OCO4)C(=O)c1ccccc1-2			5.18	> 100			1.45	2.88	1.88	4.4	0.567	1.42	0.134	0.6
COC1CC2C=CC3C4OC2(/C(C)=C/C(C)C(C(C)O)OC1=O)C3C(O)C(C)C4OC(=O)c1ccc[nH]1 (centres undefined)		> 100		> 100		> 100		> 100		> 100		> 100		> 100
NC(=O)c1cc(Cl)ccc1NC(=O)c1ccccc1-c1ccccc1	0.457	> 100	1.74	64.4	0.572	52.7	1.89	43.5	1.07	> 100			0.567	> 100

Structure (SMILES)	GI50 (MCF7 breast) [µM]	TGI (MCF7 breast) [µM]	GI50 (T-47D breast) [µM]	TGI (T-47D breast) [µM]	GI50 (BT-549 breast) [µM]	TGI (BT-549 breast) [µM]	GI50 (MDA-MB-231 breast) [µM]	TGI (MDA-MB-231 breast) [µM]	GI50 (HS 578T breast) [µM]	TGI (HS 578T breast) [µM]	GI50 (MDA-MB-435) [µM]	TGI (MDA-MB-435) [µM]	GI50 (PC-3 prostate) [µM]	TGI (PC-3 prostate) [µM]
CN(C)c1ccc2cc(-c3cc4c(oc3=O)-c3ccccc3OC4O)c(=O)oc2c1 (centres undefined)	3.23	11.2	1.01	8.55	2.11	6.72	4.9	11.5	7.14	19.6	3.67	15.9	3.85	15.1
Cc1ccc(C(=O)CCC2C(=O)CC(C)(C)CC2=O)cc1		> 100				> 100		> 100		> 100		> 100		> 100
CCOC(=O)C#Cc1ccc([N+](=O)[O-])cc1		2.49		4.05		4.76		4.64		21.8		10.8		8.54
Cc1cccc2c1O/C(=C\c1ncc([N+](=O)[O-])n1C)C2=O	0.243	3.27	9.23	58.7	0.275	1.19	0.295	1.51	0.375	4.7	0.153	0.35	0.445	
COc1cc(C)[nH]c(=O)c1CN1CCc2c(Cl)cc([C@H](OC)C3COC3)c(Cl)c2C1=O	> 100	> 100	55.4	> 100	> 100	> 100	> 100	> 100	> 100	> 100	> 100	> 100	> 100	> 100
COC1OC(CBr)C(OC(c2ccccc2)(c2ccccc2)c2ccccc2)C(OC(c2ccccc2)(c2ccccc2)c2ccccc2)C1OC(c1ccccc1)(c1ccccc1)c1ccccc1 (centres undefined)		> 100		> 100		> 100				89.4		> 100		
O=c1ccccc(-c2ccc(-c3ccco3)cc2)c1O	0.412	29.8	1.56	80.3	1.65	28	0.704	44.4	4.94	76.9	1.85	> 100	1.46	31.8
C#Cc1cccc(Nc2ncnc3ccc(-c4cnc(Cl)c(NS(C)(=O)=O)c4)cc23)c1	0.104	2.57	0.046	1.2	0.183	1.41	0.44	3.66	0.0815	0.754	0.383	2.34	0.297	2.82
CN(C)Cc1cccc(CN(C)C)[c]1[Sn]([Br])([c]1ccccc1)[c]1ccccc1	10.5	24.5	4.72	21.5	1.83	7.94	15.9	38.3	19.8	47	17.1	41.6	17.1	96.9
Oc1cccc(Cn2c(-c3cccc(O)c3O)nc3ccccc32)c1O	1.44	13.8			18.9	81.1	0.92	7.71	26.9	> 100	2.13	15.3	6.69	34.2
Cc1ccc2c(N/N=C\c3ccco3)cc(C)nc2n1	3.28	15.5			4.37	14.9	3.53	13.5	5.83	29.6	2.63	10.7	6.26	22.5
N#Cc1nn(C2OC(COC(=O)c3ccccc3)C(OC(=O)c3ccccc3)C2OC(=O)c2ccccc2)c2nc[nH]c(=O)c12 (centres undefined)		> 100		> 100				> 100		> 100		> 100		> 100
O=C(NC1CCN(Cc2ccccc2)CC1)c1cc(C(=O)NC2CCN(Cc3ccccc3)CC2)cc(C(=O)NC2CCN(Cc3ccccc3)CC2)c1	0.946	1.85	4.56	14.3	2.01	11.4	2.57	11.6	7.26	16.9	0.923	1.85	7.73	19.5
c1ccc(/N=C2\c3ccccc3CN2c2ccccn2)nc1		> 100		77.2		> 100		> 100		> 100		> 100		> 100
COc1ccc(-c2csc(NC(=O)N3CCN(c4cc5c(cc4F)c(=O)c(C(=O)O)cn5C4CC4)CC3)n2)cc1	2.6	> 100	1.57	> 100	0.616	6.64	2.71	> 100	2.94	> 100	2.54	> 100	2.98	> 100
O=C(Nc1ccc(Cl)cc1)c1cc2cc(F)ccc2cc1O	1.54	6.51	0.941	5.36	1.35	5.12	1.55	5.29	3.03	> 100	1.96	8.8	1.94	> 100
O=C1CCC2=C3C4CCCCC4C(=O)C4CCCC(OC2C1)C34 (centres undefined)	1.21	> 100	3.58	> 100	1.4	6.03	1.47	> 27.6	1.96	6.88	0.516	2.08	2.57	> 29.6
COc1cc2c(=O)n(CCCn3ccnc3)c3c4cc5c(cc4ccc3c2cc1OC)OCO5	0.0999	> 100	0.245	7.82	0.701	> 100	1.38	> 100	2.33	> 80.6			0.774	> 100
